Results: patent US20210308089A1, “METHODS OF TREATING AND/OR PREVENTING VIRAL INFECTIONS AND/OR DISEASES CAUSED BY VIRUSES IN A SUBJECT IN NEED THEREOF” (priority 2020, published 2021)

Tested on: patients of the REDUCE-IT and earlier EPA placebo-controlled trials
Type: in vivo, human
Details: R-I

CC/C=C\C/C=C\C/C=C\C/C=C\C/C=C\CCCC(=O)OCC [icosapent ethyl, eicosapentaenoic acid ethyl ester]
ARR: Platelet count: PCS Low <100 × 10^3/uL: −0.6% | ARR: SBP High (≥160 mmHg): −1.7% | ARR: SBP High and rose ≥20 mmHg: −1.1% | ARR: SBP Low (≤90 mmHg): 0.5% | ARR: SBP dropped ≥20 mmHg: 2.6% | ARR: SBP low and dropped ≥20 mmHg: 0.2% | ARR: SBP rose ≥20 mmHg: −0.7% | ARR: Urate high (Day 120): 4.4% | ARR: Urate high (Day 360): 3.9% | ARR: Urate high (Day 720): 3.4% | ARR: Urate high (Day 1080): 1.2% | ARR: Urate high (Day 1440): 1.3% | ARR: Urate high (Day 1800): 1.0% | ARR: Urate shift: normal to high (Day 120): 2.8% | ARR: Urate shift: normal to high (Day 360): 3.0% | ARR: Urate shift: normal to high (Day 720): 2.5% | ARR: Urate shift: normal to high (Day 1080): 0.8% | ARR: Urate shift: normal to high (Day 1440): 0.6% | ARR: Urate shift: normal to high (Day 1800): 0.2% | ARR: Urate shift: normal to low (Day 120): 0.1% | ARR: Urate shift: normal to low (Day 360): −0.1% | ARR: Urate shift: normal to low (Day 720): −0.2% | ARR: Urate shift: normal to low (Day 1080): −0.1% | ARR: Urate shift: normal to low (Day 1440): −0.4% | ARR: Uric acid PCS High >7.5 mg/dL (Women): 0.8% | ARR: Uric acid PCS High >8.0 mg/dL (Men): 4.2% | ARR: Uric acid PCS Low <1.9 mg/dL (Women): 0.0% | ARR: Uric acid PCS Low <2.5 mg/dL (Men): −0.2% | NNT: ALP high (Day 120): 67 | NNT: ALP high (Day 360): 50 | NNT: ALP high (Day 720): 41 | NNT: ALP high (Day 1080): 33 | NNT: ALP high (Day 1440): 34 | NNT: ALP high (Day 1800): 37 | NNT: ALP shift: normal to high (Day 120): 78 | NNT: ALP shift: normal to high (Day 360): 54 | NNT: ALP shift: normal to high (Day 720): 39 | NNT: ALP shift: normal to high (Day 1080): 34 | NNT: ALP shift: normal to high (Day 1440): 37 | NNT: ALP shift: normal to high (Day 1800): 39 | NNT: ALP shift: normal to low (Day 120): −267 | NNT: ALP shift: normal to low (Day 360): −359 | NNT: ALP shift: normal to low (Day 720): −252 | NNT: ALP shift: normal to low (Day 1080): −360 | NNT: ALP shift: normal to low (Day 1440): −956 | NNT: Albumin high (Day 120): −133 | NNT: Albumin high (Day 360): −138 | NNT: Albumin high (Day 720): −156 | NNT: Albumin high (Day 1080): −140 | NNT: Albumin high (Day 1440): −132 | NNT: Albumin shift: normal to high (Day 120): −123 | NNT: Albumin shift: normal to high (Day 360): −137 | NNT: Albumin shift: normal to high (Day 720): −140 | NNT: Albumin shift: normal to high (Day 1080): −248 | NNT: Albumin shift: normal to high (Day 1440): −145 | NNT: Bilirubin >1x ULN to 2x ULN: −29 | NNT: Bilirubin >2x ULN to 3x ULN: −497 | NNT: Bilirubin high (Day 120): −42 | NNT: Bilirubin high (Day 360): −50 | NNT: Bilirubin high (Day 720): −38 | NNT: Bilirubin high (Day 1080): −50 | NNT: Bilirubin high (Day 1440): −40 | NNT: Bilirubin high (Day 1800): −43 | NNT: Bilirubin shift: normal to high (Day 120): −77 | NNT: Bilirubin shift: normal to high (Day 360): −80 | NNT: Bilirubin shift: normal to high (Day 720): −76 | NNT: Bilirubin shift: normal to high (Day 1080): −95 | NNT: Bilirubin shift: normal to high (Day 1440): −57 | NNT: Bilirubin shift: normal to high (Day 1800): −81 | NNT: Calcium high (Day 120): 430 | NNT: Calcium high (Day 360): 1019 | NNT: Calcium high (Day 720): 325 | NNT: Calcium low (Day 120): −1944 | NNT: Calcium low (Day 360): −410 | NNT: Calcium low (Day 720): −567 | NNT: DBP High (≥100 mmHg): −165 | NNT: DBP High and Rose ≥10 mmHg: −264 | NNT: DBP Low (≤50 mmHG): −794 | NNT: DBP Low and dropped ≥10 mmHg: −3916 | NNT: DBP dropped ≥10 mmHG: −32 | NNT: DBP rose ≥10 mmHg: 158 | NNT: High platelets (Day 720): −162 | NNT: Low platelets (Day 360): 54 | NNT: Low platelets (Day 720): 144 | NNT: Low platelets (Day 1080): 85 | NNT: Platelet count: PCS Low <100 × 10^3/uL: 166 | NNT: SBP High (≥160 mmHg): 58 | NNT: SBP High and rose ≥20 mmHg: 87 | NNT: SBP Low (≤90 mmHg): −221 | NNT: SBP dropped ≥20 mmHg: −38 | NNT: SBP low and dropped ≥20 mmHg: −497 | NNT: SBP rose ≥20 mmHg: 140 | NNT: Urate high (Day 120): −22 | NNT: Urate high (Day 360): −26 | NNT: Urate high (Day 720): −29 | NNT: Urate high (Day 1080): −81 | NNT: Urate high (Day 1440): −76 | NNT: Urate high (Day 1800): −103 | NNT: Urate shift: normal to high (Day 120): −36 | NNT: Urate shift: normal to high (Day 360): −33 | NNT: Urate shift: normal to high (Day 720): −39 | NNT: Urate shift: normal to high (Day 1080): −127 | NNT: Urate shift: normal to high (Day 1440): −160 | NNT: Urate shift: normal to high (Day 1800): −422 | NNT: Urate shift: normal to low (Day 120): −1647 | NNT: Urate shift: normal to low (Day 360): 1418 | NNT: Urate shift: normal to low (Day 720): 533 | NNT: Urate shift: normal to low (Day 1080): 740 | NNT: Urate shift: normal to low (Day 1440): 280 | NNT: Uric acid PCS High >7.5 mg/dL (Women): −120 | NNT: Uric acid PCS High >8.0 mg/dL (Men): −24 | NNT: Uric acid PCS Low <1.9 mg/dL (Women): −1.58e+07 | NNT: Uric acid PCS Low <2.5 mg/dL (Men): 569 | Placebo-Adjusted % Change: Alkaline phosphatase (Day 120): −10.4% | Placebo-Adjusted % Change: Alkaline phosphatase (Day 360): −12.5% | Placebo-Adjusted % Change: Alkaline phosphatase (Day 720): −12.6% | Placebo-Adjusted % Change: Alkaline phosphatase (Day 1080): −14.1% | Placebo-Adjusted % Change: Alkaline phosphatase (Day 1440): −13.1% | Placebo-Adjusted % Change: DBP (Day 120): −.9% | Placebo-Adjusted % Change: DBP (Day 360): −.8% | Placebo-Adjusted % Change: DBP (Day 720): −.6% | Placebo-Adjusted % Change: DBP (Day 1080): −.5% | Placebo-Adjusted % Change: DBP (Day 1440): −.4% | Placebo-Adjusted % Change: SBP (Day 120): −1% | Placebo-Adjusted % Change: SBP (Day 360): −1.1% | Placebo-Adjusted % Change: SBP (Day 720): −1% | Placebo-Adjusted % Change: SBP (Day 1080): −1.1% | Placebo-Adjusted % Change: SBP (Day 1440): −.9% | Placebo-Adjusted % Change: Urate (Day 120): +4.31% | Placebo-Adjusted % Change: Urate (Day 360): +4.07% | Placebo-Adjusted % Change: Urate (Day 720): +3.66% | Placebo-Adjusted % Change: Urate (Day 1080): +2.94% | Placebo-Adjusted % Change: Urate (Day 1440): +3.23% | Risk Ratio (95% CI): ALP high (Day 120): 0.623 (0.485 to 0.801) 2 | Risk Ratio (95% CI): ALP high (Day 360): 0.542 (0.420 to 0.700) 3 | Risk Ratio (95% CI): ALP high (Day 720): 0.568 (0.449 to 0.717) 3 | Risk Ratio (95% CI): ALP high (Day 1080): 0.486 (0.375 to 0.630) 3 | Risk Ratio (95% CI): ALP high (Day 1440): 0.483 (0.362 to 0.644) 3 | Risk Ratio (95% CI): ALP high (Day 1800): 0.527 (0.362 to 0.767) 3 | Risk Ratio (95% CI): ALP shift: normal to high (Day 120): 0.401 (0.267 to 0.603) 3 | Risk Ratio (95% CI): ALP shift: normal to high (Day 360): 0.335 (0.227 to 0.497) 4 | Risk Ratio (95% CI): ALP shift: normal to high (Day 720): 0.397 (0.291 to 0.541) 4
